Assay results taken from US11993640B2, “Treating inflammatory lung disease” (United States Government as represented by the Department …, priority 2019, dated 2024).
Entries after “also recorded” stand apart in the source; their conditions may differ. Non-standard residues stand in square brackets, D forms with d. Residues, ends and D or L forms follow the SMILES beside them. *: point of attachment. Phenylacetyl(2,3,4,5,6-F5) = O=C(Cc1c(F)c(F)c(F)c(F)c1F)*; Phe(F5) = N[C@@H](Cc1c(F)c(F)c(F)c(F)c1F)C(=O)O; Phe(4-Cl) = N[C@@H](Cc1ccc(Cl)cc1)C(=O)O; hArg = N=C(N)NCCCC[C@H](N)C(=O)O; 12Ado = NCCCCCCCCCCCC(=O)O; Nle = CCCC[C@H](N)C(=O)O; Orn = NCCC[C@H](N)C(=O)O; Abu = CC[C@H](N)C(=O)O

How the values were obtained:
HCC827 cells = experiment: In vitro cell viability, lung cancer HCC827; type: cell-based, human; details: 5 μM, 72 h; relative to MIA602 = 1; Table 3A
Description: (§1) The inhibitory effects of the various synthesized GHRH antagonists were tested in cell proliferation assays in various human cancer cell lines including stomach cancer (KATOIII, N87), colon cancer (HT-29), urothelial cancer (J82, RT4), pancreatic cancer (PANC-1, CFPAC-1), prostatic cancer (PC3), breast cancer (MX-1, HCC1806), ovarian cancer (SK-OV-3, OVCAR-3) and lung cancer (HCC827, H460).
(§2) Cell culture. Human cancer cell lines including pancreatic (PANC-1 and CFPAC-1), lung (HCC827 and H460), stomach (NCI-N87 and KATOIII), urothelial (J82, RT4), prostatic (PC3), breast (MX-1 and HCC 1806), colorectal (HT-29), and ovarian (SK-OV-3 and OVCAR-3) were obtained from the American Type Culture Collection (ATCC) and cultured at 37° C. in a humidified 95% air/5% CO2 atmosphere in the medium recommended by ATCC.
(§3) In vitro cell viability. Cell viability was analyzed as follows: cancer cells including pancreatic (PANC-1 and CFPAC-1), lung (HCC827 and H460), stomach (NCI-N87 and KATOIII), urothelial (J82, RT4), prostatic (PC3) and breast (MX-1 and HCC 1806), colorectal (HT-29) and ovarian (SK-OV-3 and OVCAR-3) were grown on 96 well plates to ˜60% confluence, the cells were starved for 24 h in culture medium containing 0.5% FBS. Cells were then treated with GHRH antagonists MIA602 AVR compounds at concentrations of 1, 2.5 or 5 μM, or vehicle (0.1% DMSO) in quintuplicates for 72 hours. The medium was replaced every 48 hours. Cell viability was measured using CellTiter 96 aqueous one solution kit (Promega). Inhibitory effects of tested AVR compounds in comparison to that of MIA602 are presented as inhibitory potency.
(§4) Inhibitory effects of selected AVR compounds in comparison to that of MIA602 are presented as inhibitory potency (e.g., percentage of inhibition). […] The cell lines tested including lung cancer HCC827 (FIG. 2A), pancreatic cancer CFPAC-1 (FIG. 2B), stomach cancer N87 (FIG. 2C), colon cancer HT-29 (FIG. 2D), breast cancers MX-1 and HCC1806 (FIGS. 2E, F). Based on the results of cell proliferation assay after cancer cells were treated with antagonist at concentration of 5 μM for 72H, the relative inhibitory potency of AVR antagonists in comparison to MIA-602 is summarized in Table 3 A and B. Over 60 AVR compounds were tested in 12 cancer cell lines.
(§5) Based on the results of cell proliferation assay after cancer cells were treated with antagonist at concentration of 5 µM for 72H, * at concentration of 2 µM for 72 H.

CFPAC-1 cells = experiment: In vitro cell viability, pancreatic cancer CFPAC-1; type: cell-based, human; details: 5 μM, 72 h; relative to MIA602 = 1; Table 3A
Description: as §1, §2, §3, §4, §5

[1] = target: T1, membrane GHRH-receptors on human anterior pituitary cells (Homo sapiens, UniProt Q02643); experiment: Competitive receptor binding, displacement of 125I-[His1,Nle27]-hGH-RH(1-32)NH2 from human pituitary membranes
T1 construct: Human pituitary was purchased from the National Hormone and Peptide Program; tissue National Hormone and Peptide Program; host or cells: human pituitary membrane fractions
T1 sequence (Q02643 23-423): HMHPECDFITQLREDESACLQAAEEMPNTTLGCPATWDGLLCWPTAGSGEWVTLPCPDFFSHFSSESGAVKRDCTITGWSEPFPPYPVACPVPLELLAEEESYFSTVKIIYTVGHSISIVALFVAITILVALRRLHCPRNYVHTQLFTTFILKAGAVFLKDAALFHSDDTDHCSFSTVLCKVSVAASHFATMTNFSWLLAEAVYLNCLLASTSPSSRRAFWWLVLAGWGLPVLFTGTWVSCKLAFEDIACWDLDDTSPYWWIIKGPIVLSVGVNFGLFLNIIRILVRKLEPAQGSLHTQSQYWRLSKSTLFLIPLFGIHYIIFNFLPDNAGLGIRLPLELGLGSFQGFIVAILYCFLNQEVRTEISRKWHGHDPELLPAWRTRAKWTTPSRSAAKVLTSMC
Description: Receptor binding affinities in vitro. Preparation of human pituitary membrane fractions and receptor binding of analogs of GH-RH were performed (Halmos G, Rekasi Z, Szoke B, Schally A V. (1993) Receptor 3:87-97). Human pituitary was purchased from the National Hormone and Peptide Program. […] Relative affinities compared to hGH-RH(1-29)NH2 were calculated as the ratio of IC50 (dose causing 50% inhibition of specific binding to receptors) of the tested peptides to the IC50 of hGH-RH(1-29)NH2. The values were calculated from technical duplicate tubes.
Nineteen new AVR analogs of GHRH were tested in the receptor binding assay. Table 6 presents the IC50 values of GHRH antagonists to membrane GHRH-receptors binding on human anterior pituitary cells.

Structure (SMILES) | Relative inhibitory potency, Lung HCC827 (HCC827 cells) | Relative inhibitory potency, Pancreatic CFPAC-1 (CFPAC-1 cells) | IC50 ([1]; human anterior pituitary membranes, mean of two to three determinations, read-out: IC50) [nM] | Binding affinity to membrane receptors of human pituitary cells [1]
CCCC[C@H](NC(=O)[C@@H](NC(=O)[C@H](CC(=O)O)NC(=O)[C@H](CCC(N)=O)NC(=O)[C@H](CC(C)C)NC(=O)[C@H](CC(C)C)NC(=O)[C@H](CCCN)NC(=O)[C@H](Cc1c[nH]cn1)NC(=O)[C@H](C)NC(=O)[C@H](CO)NC(=O)[C@H](CC(C)C)NC(=O)[C@H](CCC(N)=O)NC(=O)[C@H](CC)NC(=O)[C@H](CC(C)C)NC(=O)[C@@H](NC(=O)[C@H](CCCN)NC(=O)[C@H](Cc1c[nH]cn1)NC(=O)[C@H](Cc1c(F)c(F)c(F)c(F)c1F)NC(=O)[C@H](CCCCNC(=N)N)NC(=O)[C@H](C)NC(=O)[C@@H](NC(=O)[C@H](Cc1ccc(Cl)cc1)NC(=O)[C@@H](NC(=O)[C@H](C)NC(=O)[C@H](CC(=O)O)NC(=O)[C@@H](CCCNC(=N)N)NC(=O)[C@H](Cc1ccc(O)cc1)NC(=O)CCCCCCCCCCCNC(=O)Cc1c(F)c(F)c(F)c(F)c1F)[C@@H](C)CC)[C@@H](C)O)C(C)C)[C@@H](C)CC)C(=O)N[C@H](CCCNC(=N)N)C(=O)N[C@@H](CCCCNC(=N)N)C(=O)NC [AVR-542, 5FPhAC-Ada-Tyr-DArg-Asp-Ala-Ile-Cpa-Thr-Ala-Har-5FPhe-His-Orn-Val-Leu-Abu-Gln-Leu-Ser-Ala-His-Orn-Leu-Leu-Gln-Asp-Ile-Nle-DArg-Har-NHCH3] ({Phenylacetyl(2,3,4,5,6-F5)-12Ado}-Y[dR]DAI[Phe(4-Cl)]TA[hArg][Phe(F5)]H[Orn]VL[Abu]QLSAH[Orn]LLQDI[Nle][dR][hArg]-NHMe) | 2.649 | 1.312 | 0.21 | –
CCCC[C@H](NC(=O)[C@@H](NC(=O)[C@H](CC(=O)O)NC(=O)[C@H](CCC(N)=O)NC(=O)[C@H](CC(C)C)NC(=O)[C@H](CC(C)C)NC(=O)[C@H](CCCN)NC(=O)[C@H](Cc1c[nH]cn1)NC(=O)[C@H](C)NC(=O)[C@H](CO)NC(=O)[C@H](CC(C)C)NC(=O)[C@H](CCC(N)=O)NC(=O)[C@H](CC)NC(=O)[C@H](CC(C)C)NC(=O)[C@@H](NC(=O)[C@H](CCCN)NC(=O)[C@H](Cc1c[nH]cn1)NC(=O)[C@H](Cc1c(F)c(F)c(F)c(F)c1F)NC(=O)[C@H](CCCCNC(=N)N)NC(=O)[C@H](C)NC(=O)[C@@H](NC(=O)[C@H](Cc1ccc(Cl)cc1)NC(=O)[C@@H](NC(=O)[C@H](C)NC(=O)[C@H](CC(=O)O)NC(=O)[C@@H](CCCNC(=N)N)NC(=O)[C@H](Cc1ccc(O)cc1)NC(=O)CCCCCCCCCCCNC(=O)Cc1c(F)c(F)c(F)c(F)c1F)[C@@H](C)CC)[C@@H](C)O)C(C)C)[C@@H](C)CC)C(=O)N[C@H](CCCNC(=N)N)C(=O)N[C@@H](CCCCNC(=N)N)C(=O)NCCCCCCCCCCCC(N)=O [AVR-552, 5FPhAC-Ada-Tyr-DArg-Asp-Ala-Ile-Cpa-Thr-Ala-Har-5FPhe-His-Orn-Val-Leu-Abu-Gln-Leu-Ser-Ala-His-Orn-Leu-Leu-Gln-Asp-Ile-Nle-DArg-Har-Ada-NH2] ({Phenylacetyl(2,3,4,5,6-F5)-12Ado}-Y[dR]DAI[Phe(4-Cl)]TA[hArg][Phe(F5)]H[Orn]VL[Abu]QLSAH[Orn]LLQDI[Nle][dR][hArg][12Ado]-NH2) | 4.376 | 1.57 | – | higher binding affinity in comparison to MIA-602; also recorded: highest binding affinities
CCCC[C@H](NC(=O)[C@@H](NC(=O)[C@H](CC(=O)O)NC(=O)[C@H](CCC(N)=O)NC(=O)[C@H](CC(C)C)NC(=O)[C@H](CC(C)C)NC(=O)[C@H](CCCN)NC(=O)[C@H](Cc1c[nH]cn1)NC(=O)[C@H](C)NC(=O)[C@H](CO)NC(=O)[C@H](CC(C)C)NC(=O)[C@H](CCC(N)=O)NC(=O)[C@H](CC)NC(=O)[C@H](CC(C)C)NC(=O)[C@@H](NC(=O)[C@H](CCCN)NC(=O)[C@H](Cc1c[nH]cn1)NC(=O)[C@H](Cc1ccc(OC)cc1)NC(=O)[C@H](CCCCNC(=N)N)NC(=O)[C@H](C)NC(=O)[C@@H](NC(=O)[C@H](Cc1c(F)c(F)c(F)c(F)c1F)NC(=O)[C@@H](NC(=O)[C@H](C)NC(=O)[C@H](CC(=O)O)NC(=O)[C@@H](CCCNC(=N)N)NC(=O)[C@H](Cc1ccc(O)cc1)NC(=O)CCCCCCCCCCCNC(=O)Cc1c(F)c(F)c(F)c(F)c1F)[C@@H](C)CC)[C@@H](C)O)C(C)C)[C@@H](C)CC)C(=O)N[C@H](CCCNC(=N)N)C(=O)N[C@@H](CCCCNC(=N)N)C(=O)NCCCCCCCCCCCC(N)=O [AVR-553, 5FPhAC-Ada-Tyr-DArg-Asp-Ala-Ile-5FPhe-Thr-Ala-Har-Tyr(Me)-His-Orn-Val-Leu-Abu-Gln-Leu-Ser-Ala-His-Orn-Leu-Leu-Gln-Asp-Ile-Nle-DArg-Har-Ada-NH2] ({Phenylacetyl(2,3,4,5,6-F5)-12Ado}-Y[dR]DAI[Phe(F5)]TA[hArg]Y(Me)H[Orn]VL[Abu]QLSAH[Orn]LLQDI[Nle][dR][hArg][12Ado]-NH2) | – | – | – | higher binding affinity in comparison to MIA-602; also recorded: highest binding affinities
